Experimental data published in ChEMBL document CHEMBL4229379, “Synthesis and structure-activity relationship of novel bisindole amidines active against MDR Gram-positive and Gram-negative bacteria” (Eur J Med Chem, 2018).
≈ marks a conversion by molar mass, not a printed value.

Columns and labels:
[1] = tested on: Staphylococcus epidermidis; assay: Antibacterial activity against methicillin-sensitive Staphylococcus epidermidis ATCC 12228 after 18 hrs by CLSI broth microdilution method; assay type: functional; conditions: ATCC 12228, 18 h
[2] = tested on: Staphylococcus epidermidis; assay: Antibacterial activity against methicillin-resistant Staphylococcus epidermidis 12-8 after 18 hrs by CLSI broth microdilution method; assay type: functional; conditions: 12-8, 18 h
Staphylococcus aureus [3] = assay: Antibacterial activity against methicillin-sensitive Staphylococcus aureus ATCC 29213 after 18 hrs by CLSI broth microdilution method; assay type: functional; conditions: ATCC 29213, 18 h
Staphylococcus aureus [4] = assay: Antibacterial activity against methicillin-resistant Staphylococcus aureus 12-33 after 18 hrs by CLSI broth microdilution method; assay type: functional; conditions: 12-33, 18 h
Enterococcus faecalis [5] = assay: Antibacterial activity against vancomycin-sensitive Enterococcus faecalis ATCC 29212 after 18 hrs by CLSI broth microdilution method; assay type: functional; conditions: ATCC 29212, 18 h
Enterococcus faecalis [6] = assay: Antibacterial activity against vancomycin-resistant Enterococcus faecalis 09-9 after 18 hrs by CLSI broth microdilution method; assay type: functional; conditions: 09-9, 18 h
Enterococcus faecium [7] = assay: Antibacterial activity against vancomycin-resistant Enterococcus faecium ATCC 700221 after 18 hrs by CLSI broth microdilution method; assay type: functional; conditions: ATCC 700221, 18 h
Enterococcus faecium [8] = assay: Antibacterial activity against vancomycin-sensitive Enterococcus faecium 12-3 after 18 hrs by CLSI broth microdilution method; assay type: functional; conditions: 12-3, 18 h
Escherichia coli [9] = assay: Antibacterial activity against extended-spectrum beta-lactamase deficient Escherichia coli ATCC 25922 after 18 hrs by CLSI broth microdilution method; assay type: functional; conditions: ATCC 25922, 18 h
Escherichia coli [10] = assay: Antibacterial activity against extended-spectrum beta-lactamase harboring Escherichia coli 12-15 after 18 hrs by CLSI broth microdilution method; assay type: functional; conditions: 12-15, 18 h
Klebsiella pneumoniae [11] = assay: Antibacterial activity against extended-spectrum beta-lactamase harboring Klebsiella pneumoniae ATCC 700603 after 18 hrs by CLSI broth microdilution method; assay type: functional; conditions: Klebsiella pneumoniae, 700603, 18 h
Klebsiella pneumoniae [12] = assay: Antibacterial activity against new delhi metallo-beta-lactamase-1 harboring Klebsiella pneumoniae ATCC BAA-2146 after 18 hrs by CLSI broth microdilution method; assay type: functional; conditions: ATCC BAA-2146, 18 h
Klebsiella pneumoniae [13] = assay: Antibacterial activity against extended-spectrum beta-lactamase harboring Klebsiella pneumoniae 12-8 after 18 hrs by CLSI broth microdilution method; assay type: functional; conditions: 12-8, 18 h
Pseudomonas aeruginosa [14] = assay: Antibacterial activity against Pseudomonas aeruginosa ATCC 27853 after 18 hrs by CLSI broth microdilution method; assay type: functional; conditions: ATCC 27853, 18 h
[15] = tested on: Acinetobacter calcoaceticus; assay: Antibacterial activity against Acinetobacter calcoaceticus ATCC 19606 after 18 hrs by CLSI broth microdilution method; assay type: functional; conditions: ATCC 19606, 18 h
Enterobacter cloacae = assay: Antibacterial activity against Enterobacter cloacae ATCC 43560 after 18 hrs by CLSI broth microdilution method; assay type: functional; conditions: ATCC 43560, 18 h
Proteus mirabilis = assay: Antibacterial activity against Proteus mirabilis 12-6 after 18 hrs by CLSI broth microdilution method; assay type: functional; conditions: 12-6, 18 h
[16] = Cytotoxicity against HEK293T cells assessed as reduction in cell viability after 48 hrs by MTS assay; assay type: cell-based, HEK-293T; conditions: human
[17] = tested on: Staphylococcus epidermidis; assay: Antibacterial activity against methicillin-sensitive Staphylococcus epidermidis 12-6 after 18 hrs by CLSI broth microdilution method; assay type: functional; conditions: 12-6, 18 h
Staphylococcus aureus [18] = assay: Antibacterial activity against methicillin-resistant Staphylococcus aureus ATCC 33591 after 18 hrs by CLSI broth microdilution method; assay type: functional; conditions: ATCC 33591, 18 h
Staphylococcus aureus [19] = assay: Antibacterial activity against methicillin-sensitive Staphylococcus aureus 15 after 18 hrs by CLSI broth microdilution method; assay type: functional; conditions: Staphylococcus aureus, 15, 18 h
Staphylococcus aureus [20] = assay: Antibacterial activity against methicillin-sensitive Staphylococcus aureus 12-28 after 18 hrs by CLSI broth microdilution method; assay type: functional; conditions: 12-28, 18 h
Enterococcus faecalis [21] = assay: Antibacterial activity against vancomycin-resistant Enterococcus faecalis ATCC 51299 after 18 hrs by CLSI broth microdilution method; assay type: functional; conditions: ATCC 51299, 18 h
Enterococcus faecalis [22] = assay: Antibacterial activity against vancomycin-sensitive Enterococcus faecalis 12-5 after 18 hrs by CLSI broth microdilution method; assay type: functional; conditions: 12-5, 18 h
Enterococcus faecium [23] = assay: Antibacterial activity against vancomycin-resistant Enterococcus faecium 12-1 after 18 hrs by CLSI broth microdilution method; assay type: functional; conditions: 12-1, 18 h
Escherichia coli [24] = assay: Antibacterial activity against extended-spectrum beta-lactamase deficient Escherichia coli 1515 after 18 hrs by CLSI broth microdilution method; assay type: functional; conditions: Escherichia coli, 1515, 18 h
Escherichia coli [25] = assay: Antibacterial activity against extended-spectrum beta-lactamase deficient Escherichia coli 12-14 after 18 hrs by CLSI broth microdilution method; assay type: functional; conditions: 12-14, 18 h
Klebsiella pneumoniae [26] = assay: Antibacterial activity against extended-spectrum beta-lactamase deficient Klebsiella pneumoniae 7 after 18 hrs by CLSI broth microdilution method; assay type: functional; conditions: Klebsiella pneumoniae, 7, 18 h
Klebsiella pneumoniae [27] = assay: Antibacterial activity against extended-spectrum beta-lactamase deficient Klebsiella pneumoniae 12-4 after 18 hrs by CLSI broth microdilution method; assay type: functional; conditions: 12-4, 18 h
Pseudomonas aeruginosa [28] = assay: Antibacterial activity against Pseudomonas aeruginosa PAO1 after 18 hrs by CLSI broth microdilution method; assay type: functional; conditions: PAO1, 18 h
Pseudomonas aeruginosa [29] = assay: Antibacterial activity against Pseudomonas aeruginosa 12-16 after 18 hrs by CLSI broth microdilution method; assay type: functional; conditions: 12-16, 18 h
Klebsiella aerogenes = assay: Antibacterial activity against Enterobacter aerogenes ATCC 13048 after 18 hrs by CLSI broth microdilution method; assay type: functional; conditions: ATCC 13048, 18 h
Serratia marcescens = assay: Antibacterial activity against Serratia marcescens ATCC 21074 after 18 hrs by CLSI broth microdilution method; assay type: functional; conditions: ATCC 21074, 18 h
Providencia rettgeri = assay: Antibacterial activity against Providencia rettgeri ATCC 31052 after 18 hrs by CLSI broth microdilution method; assay type: functional; conditions: ATCC 31052, 18 h
Proteus vulgaris = assay: Antibacterial activity against Proteus vulgaris ATCC 29905 after 18 hrs by CLSI broth microdilution method; assay type: functional; conditions: ATCC 29905, 18 h
[30] = tested on: Stenotrophomonas maltophilia; assay: Antibacterial activity against Stenotrophomonas maltophilia ATCC 13636 after 18 hrs by CLSI broth microdilution method; assay type: functional; conditions: ATCC 13636, 18 h
Citrobacter freundii = assay: Antibacterial activity against Citrobacter freundii ATCC 43864 after 18 hrs by CLSI broth microdilution method; assay type: functional; conditions: ATCC 43864, 18 h

With `CNC(=N)c1ccc2cc(-c3ccc(-c4cc5ccc(C(=N)NC)cc5[nH]4)cc3)[nH]c2c1` the MIC [1] was 0.12 µg/mL (≈ 0.285 µM), the MIC [2] was 0.25 µg/mL (≈ 0.595 µM) and the MIC (Staphylococcus aureus [3]) was 0.25 µg/mL (≈ 0.595 µM). The MIC (Staphylococcus aureus [4]) was 0.25 µg/mL (≈ 0.595 µM), the MIC (Enterococcus faecalis [5]) was 2 µg/mL (≈ 4.76 µM) and the MIC (Enterococcus faecalis [6]) was 1 µg/mL (≈ 2.38 µM). It also gave an MIC (Enterococcus faecium [7]) of 0.5 µg/mL (≈ 1.19 µM), an MIC (Enterococcus faecium [8]) of 2 µg/mL (≈ 4.76 µM) and an MIC (Escherichia coli [9]) of 4 µg/mL (≈ 9.51 µM). The MIC (Escherichia coli [10]) was 8 µg/mL (≈ 19 µM), the MIC (Klebsiella pneumoniae [11]) was 64 µg/mL (≈ 152 µM) and the MIC (Klebsiella pneumoniae [12]) was 64 µg/mL (≈ 152 µM). It also gave an MIC (Klebsiella pneumoniae [13]) of 32 µg/mL (≈ 76.1 µM), an MIC (Pseudomonas aeruginosa [14]) of 16 µg/mL (≈ 38 µM) and an MIC [15] of 128 µg/mL (≈ 304 µM). The MIC (Enterobacter cloacae) was 8 µg/mL (≈ 19 µM), the MIC (Proteus mirabilis) was 64 µg/mL (≈ 152 µM) and the CC50 at 48 h [16] was 28 µg/mL (≈ 66.6 µM). For the same compound, the MIC [17] was 0.12 µg/mL (≈ 0.285 µM), the MIC (Staphylococcus aureus [18]) was 0.25 µg/mL (≈ 0.595 µM) and the MIC (Staphylococcus aureus [19]) was 0.25 µg/mL (≈ 0.595 µM). It also gave an MIC (Staphylococcus aureus [20]) of 0.25 µg/mL (≈ 0.595 µM), an MIC (Enterococcus faecalis [21]) of 2 µg/mL (≈ 4.76 µM) and an MIC (Enterococcus faecalis [22]) of 2 µg/mL (≈ 4.76 µM). For the same compound, the MIC (Enterococcus faecium [23]) was 0.5 µg/mL (≈ 1.19 µM), the MIC (Escherichia coli [24]) was 16 µg/mL (≈ 38 µM) and the MIC (Escherichia coli [25]) was 8 µg/mL (≈ 19 µM). For the same compound, the MIC (Klebsiella pneumoniae [26]) was 16 µg/mL (≈ 38 µM), the MIC (Klebsiella pneumoniae [27]) was 32 µg/mL (≈ 76.1 µM) and the MIC (Pseudomonas aeruginosa [28]) was 64 µg/mL (≈ 152 µM). For the same compound, the MIC (Pseudomonas aeruginosa [29]) was 64 µg/mL (≈ 152 µM), the MIC (Klebsiella aerogenes) was 16 µg/mL (≈ 38 µM) and the MIC (Serratia marcescens) was 64 µg/mL (≈ 152 µM). For the same compound, the MIC (Providencia rettgeri) was 64 µg/mL (≈ 152 µM), the MIC (Proteus vulgaris) was 64 µg/mL (≈ 152 µM) and the MIC [30] was 16 µg/mL (≈ 38 µM). The MIC (Citrobacter freundii) was 16 µg/mL (≈ 38 µM).

In the case of `CN(C)CCNC(=N)c1ccc2cc(-c3ccc(-c4cc5ccc(C(=N)NCCN(C)C)cc5[nH]4)cc3)[nH]c2c1`, the MIC [1] is reported as 0.5 µg/mL (≈ 0.935 µM), the MIC [2] is reported as 1 µg/mL (≈ 1.87 µM) and the MIC (Staphylococcus aureus [3]) is reported as 2 µg/mL (≈ 3.74 µM). For the same compound, the MIC (Staphylococcus aureus [4]) was 2 µg/mL (≈ 3.74 µM), the MIC (Enterococcus faecalis [5]) was 4 µg/mL (≈ 7.48 µM) and the MIC (Enterococcus faecalis [6]) was 4 µg/mL (≈ 7.48 µM). It also gave an MIC (Enterococcus faecium [7]) of 4 µg/mL (≈ 7.48 µM), an MIC (Enterococcus faecium [8]) of 8 µg/mL (≈ 15 µM) and an MIC (Escherichia coli [9]) of 8 µg/mL (≈ 15 µM). It also gave an MIC (Escherichia coli [10]) of 16 µg/mL (≈ 29.9 µM), an MIC (Klebsiella pneumoniae [11]) of 16 µg/mL (≈ 29.9 µM) and an MIC (Klebsiella pneumoniae [12]) of 8 µg/mL (≈ 15 µM). For the same compound, the MIC (Klebsiella pneumoniae [13]) was 8 µg/mL (≈ 15 µM), the MIC (Pseudomonas aeruginosa [14]) was 16 µg/mL (≈ 29.9 µM) and the MIC [15] was over 128 µg/mL. For the same compound, the MIC (Enterobacter cloacae) was 8 µg/mL (≈ 15 µM), the MIC (Proteus mirabilis) was 128 µg/mL (≈ 239 µM) and the CC50 at 48 h [16] was 31.2 µg/mL (≈ 58.4 µM). For the same compound, the MIC [17] was 0.5 µg/mL (≈ 0.935 µM), the MIC (Staphylococcus aureus [18]) was 2 µg/mL (≈ 3.74 µM) and the MIC (Staphylococcus aureus [19]) was 2 µg/mL (≈ 3.74 µM). It also gave an MIC (Staphylococcus aureus [20]) of 2 µg/mL (≈ 3.74 µM), an MIC (Enterococcus faecalis [21]) of 4 µg/mL (≈ 7.48 µM) and an MIC (Enterococcus faecalis [22]) of 4 µg/mL (≈ 7.48 µM). It also gave an MIC (Enterococcus faecium [23]) of 4 µg/mL (≈ 7.48 µM), an MIC (Escherichia coli [24]) of 8 µg/mL (≈ 15 µM) and an MIC (Escherichia coli [25]) of 8 µg/mL (≈ 15 µM). The MIC (Klebsiella pneumoniae [26]) was 8 µg/mL (≈ 15 µM), the MIC (Klebsiella pneumoniae [27]) was 8 µg/mL (≈ 15 µM) and the MIC (Pseudomonas aeruginosa [28]) was 64 µg/mL (≈ 120 µM). For the same compound, the MIC (Pseudomonas aeruginosa [29]) was 64 µg/mL (≈ 120 µM), the MIC (Klebsiella aerogenes) was 8 µg/mL (≈ 15 µM) and the MIC (Serratia marcescens) was 16 µg/mL (≈ 29.9 µM). For the same compound, the MIC (Providencia rettgeri) was 16 µg/mL (≈ 29.9 µM), the MIC (Proteus vulgaris) was 16 µg/mL (≈ 29.9 µM) and the MIC [30] was 16 µg/mL (≈ 29.9 µM). It also gave an MIC (Citrobacter freundii) of 8 µg/mL (≈ 15 µM).
